Source: a compilation of properties of binary mixtures (doi:10.1016/j.jct.2022.106909)

Assay: xn = mol fraction of the nth substance listed
Conditions: 100 kPa

CCC(=O)[O-].C[n+]1ccn(CCO)c1 + O
viscosity [mPa·s]
Conditions	288.15 K	293.15 K	298.15 K	303.15 K	308.15 K	313.15 K	318.15 K	323.15 K	328.15 K	333.15 K
x1 = 0.7595	173	126	–	70.4	57.5	45.1	36.6	30.3	25.1	21.1
x1 = 0.8082	194	145	108.2	80.5	65.2	48.5	38.9	–	–	22.2
x1 = 0.842	217	157	–	88.5	68.6	50.9	–	33.2	28.2	22.7
x1 = 0.8991	243	178	132	101.3	–	54	42.9	–	30.2	–
x1 = 0.9102	248	184	136	103.7	78.5	54.9	43.6	35.1	–	23.9

CC(=O)[O-].Cn1cc[n+](CCO)c1 + O
viscosity [mPa·s]
Conditions	288.15 K	293.15 K	298.15 K	303.15 K	308.15 K	313.15 K	318.15 K	323.15 K	328.15 K	333.15 K
x1 = 0.8317	73.1	54.2	–	–	–	20.52	16.8	13.96	11.73	9.95
x1 = 0.8632	95.7	71.8	53.8	41.9	32.2	–	20.74	17.07	14.25	12.06
x1 = 0.8712	102.6	74.7	–	–	33.3	–	21.56	17.7	–	12.4
x1 = 0.8818	112.8	83.4	62	47.1	–	–	23.58	–	16.02	–
x1 = 0.9003	127.4	–	69.5	52.7	40.8	32.2	25.9	21.33	17.64	–
